pEC50: −log10 of the molar value. The source made the active and inactive calls.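 How the source made its calls: active means a full or partial dose-response curve in at least two of three replicate runs; inactive means the rest.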
Target: D(1B) dopamine receptor (Homo sapiens) (UniProt P21918)
Test: D5 receptor allosteric modulators, concentration-response – cell-based, HEK293, CRE-luciferase, luminescence, EC30 dopamine, selectivity assay for D1 allosteric modulator project, dose response (AID 857);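 further: HEK 293 cells expressing human D5 with a CRE-driven luciferase reporter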

Chain of D(1B) dopamine receptor (Homo sapiens) (P21918 whole entry, looked up): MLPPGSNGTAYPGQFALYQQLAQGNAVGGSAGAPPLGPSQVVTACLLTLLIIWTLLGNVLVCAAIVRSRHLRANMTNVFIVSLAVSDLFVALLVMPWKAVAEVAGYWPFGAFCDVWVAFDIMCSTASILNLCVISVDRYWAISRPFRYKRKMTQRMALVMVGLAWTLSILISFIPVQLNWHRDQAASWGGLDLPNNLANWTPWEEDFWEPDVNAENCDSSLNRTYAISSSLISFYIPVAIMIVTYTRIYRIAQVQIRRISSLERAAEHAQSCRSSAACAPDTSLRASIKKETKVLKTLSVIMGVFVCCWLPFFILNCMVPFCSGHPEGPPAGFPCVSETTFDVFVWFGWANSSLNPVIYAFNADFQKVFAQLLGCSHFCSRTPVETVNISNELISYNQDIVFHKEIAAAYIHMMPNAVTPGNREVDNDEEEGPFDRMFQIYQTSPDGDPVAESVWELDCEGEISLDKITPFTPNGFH

Row | Compound | outcome | pEC50
1 | CCn1ncc(C2=NOC(C(=O)NCc3ccccc3)C2)c1C (configuration not stated) | inactive | –
2 | CCOC(=O)Cc1[nH]nc2c1C(c1cccc(OC)c1OC)C(C#N)=C(N)O2 (configuration not stated) | inactive | –
3 | CCOC(=O)CCSc1nc(C)c2ccccc2n1 | inactive | –
4 | N#Cc1nc(-c2ccccc2Cl)oc1N1CCOCC1 | inactive | –
5 | CCOC(=O)c1[nH]c2ccccc2c1NC(=O)C(C)(C)C | inactive | –
6 | CCOc1cc(C2CC(=O)NC(SCC)=C2C#N)ccc1O (configuration not stated) | inactive | –
7 | CCN=C1SC(C(N)=O)CC(=O)N1CC (configuration not stated) | inactive | –
8 | CCOc1cc(C2C(C#N)=C(N)Oc3n[nH]c(-c4ccccc4)c32)ccc1O (configuration not stated) | inactive | –
9 | COc1ccc(-c2noc(CCN3C(=O)c4ccccc4C3=O)n2)cc1OC | inactive | –
10 | Fc1cc(Br)ccc1Nc1nc2ccccc2n2nnnc12 | inactive | –
11 | COc1ccc(CN2CCN(S(=O)(=O)c3ccccc3)CC2)c(OC)c1 | inactive | –
12 | CC1(C)Cc2c(C#N)c(N3CCCC3)nc(-c3ccco3)c2CO1 | inactive | –
13 | O=C(Nc1cc(Cl)ccc1N1CCOCC1)c1cnccn1 | inactive | –
14 | Cc1ccc(CNc2nc3ccccc3n3nnnc23)cc1 | inactive | –
15 | Cc1ccc(Nc2nnc(SCc3cc(=O)n4ccsc4n3)s2)c(C)c1 | inactive | –
16 | Cc1cc(=O)n(CC=C(Cl)Cl)c2ccccc12 | inactive | –
17 | Cc1noc(C)c1CSc1ncnc2ccccc12 | inactive | –
18 | CCOc1ncccc1C(=O)OCc1nnc(-c2ccccc2)o1 | inactive | –
19 | CCOC(=O)N1CCC(NC(=O)c2cccc3c2C(=O)N(Cc2cccnc2)C3)CC1 | inactive | –
20 | Cc1c(C)c2ccc(OC3CCCCC3=O)cc2oc1=O (configuration not stated) | inactive | –
21 | CCCc1nc2sc3c(SCC(=O)NCc4ccco4)ncnc3c2c2c1CCC2 | inactive | –
22 | COCCCNc1nc2ccccc2nc1NS(=O)(=O)c1cccs1 | inactive | –
23 | CCNc1nc(NC(C)(C)C)nc(N(CC)n2cnnc2)n1 | inactive | –

Row | Compound | outcome | pEC50
24 | CCc1nc2ccccc2c(C(=O)OCC(=O)NCc2ccco2)c1C | inactive | –
25 | COC(=O)C(C)C1Sc2ccccc2NC1=O (configuration not stated) | inactive | –
26 | c1ccc(Cn2nnc3c(N4CCc5ccccc54)ncnc32)cc1 | inactive | –
27 | O=C(c1ccco1)N1CCN(c2nc(C3CC3)nc3sc4c(c23)CCCC4)CC1 | inactive | –
28 | COC(=O)c1cccc(N2C(=O)C(Cl)=C(N3CCOCC3)C2=O)c1 | inactive | –
29 | COc1cccc(N2C(=O)C3ON(c4ccccc4)C(c4cccs4)C3C2=O)c1 (configuration not stated) | inactive | –
30 | c1ccc(C2CC(c3ccccc3)n3ncnc3N2)cc1 (configuration not stated) | inactive | –
31 | CCCCSc1nc2c(cnn2-c2ccc(F)cc2)c(=O)[nH]1 | inactive | –
32 | Cc1ccc(-c2nc3ncccn3c2NC(=O)C2CC2)cc1 | inactive | –
33 | COc1c(S(=O)(=O)n2nc(C)cc2C)ccc(Cl)c1Cl | inactive | –
34 | CCOC(=O)c1c(NC(=O)CSc2nnc(CN3CCOCC3)n2C)sc2c1CCCC2 | inactive | –
35 | CCCn1c(=NC(C)=O)c(C(=O)OCC)cc2c(=O)n3ccccc3nc21 | inactive | –
36 | O=C(CCNS(=O)(=O)c1ccc2c(c1)CCC(=O)N2)NCc1ccc2c(c1)OCO2 | inactive | –
37 | COc1ccc(-c2nnc(-c3ccc(Br)o3)o2)cc1OC | inactive | –
38 | Cc1ccc(-n2cnnn2)c2cccnc12 | inactive | –
39 | CCOC(=O)N1CCN(C(=O)CCCn2c(=S)[nH]c3ccccc3c2=O)CC1 | inactive | –
40 | CCOC(=O)c1oc2ccc(Br)cc2c1NC(=O)CN1CCN(C)CC1 | inactive | –
41 | Cc1cccc(Cc2c(C)nc3c(C(=O)NCc4ccco4)cnn3c2C)c1 | inactive | –
42 | N#Cc1c(N)nc(-c2ccccc2)nc1-c1ccccc1 | inactive | –
43 | O=C(C1CCC1)N1CCc2cc(S(=O)(=O)NCc3cccnc3)ccc21 | inactive | –
44 | NC1=NC(c2cn(-c3ccccc3)nc2-c2cccs2)n2c(nc3ccccc32)N1 (configuration not stated) | inactive | –
45 | O=C(c1cccn2c(=O)c3cc(Cl)ccc3nc12)N1CCN(Cc2ccc3c(c2)OCO3)CC1 | inactive | –
46 | Cn1c(=O)c2c(-c3ccccc3)n(N3CCOCC3)cc2n(C)c1=O | inactive | –

Row | Compound | outcome | pEC50
47 | c1ccc(-c2nc3nonc3nc2-c2ccccc2)cc1 | inactive | –
48 | CCC(C)Sc1nc2c(c(=O)n1C)SC(C)C2 (configuration not stated) | inactive | –
49 | Cc1cccc(-c2c3c(=O)n(C)c(=O)n(C)c3cn2-c2ccccc2O)c1 | inactive | –
50 | Cc1ccc(OCCN2C(=O)OC(C)(C)C2(C)O)cc1 (configuration not stated) | inactive | –
51 | CCC(=O)n1nc(-c2cccnc2)nc1NCc1ccc(OC)cc1 | inactive | –
52 | COCCNc1oc(-c2ccc(C)cc2)nc1C#N | inactive | –
53 | COc1ccc(-c2noc(-c3ccco3)n2)cc1OC | inactive | –
54 | COc1ccc(-c2cc(=O)oc3c(C)c(O)c(CN(C)C)cc23)cc1 | inactive | –
55 | COc1cc(OC)cc(C(=O)Nn2cc(C(=O)N3CCN(C)CC3)c3ccccc3c2=O)c1 | inactive | –
56 | C=CCn1c(SCc2nc3c(c(=O)[nH]c(=O)n3CCCC)n2CCC)nnc1-c1ccccc1 | inactive | –
57 | COc1ccc2c(c1)C(=O)N(c1ccccc1OC)C(=O)C2(C)C | inactive | –
58 | Cn1c(Cn2c(=O)sc3ccccc32)nnc1SCC(=O)N1CCOCC1 | inactive | –
59 | N#CC1=C(N)N(c2ccccc2)C2=C(C(=O)CCC2)C1c1ccsc1 (configuration not stated) | inactive | –
60 | COc1ccc(CCNS(=O)(=O)c2ccc3c(c2)OCCO3)cc1OC | inactive | –
61 | COc1cc2c(cc1OC)C(C(=O)Nc1ccc3c(c1)OCCO3)C1c3ccccc3CCN1C2=O (configuration not stated) | inactive | –
62 | CCC(=O)Nc1cccc(NC(=O)c2cc3ccccc3o2)c1 | inactive | –
63 | CC(C)Sc1nc2c(c(=O)n1C)SC(C)C2 (configuration not stated) | inactive | –
64 | COc1cc2[nH]c(=S)n(C3CCCC3)c(=O)c2cc1OC | inactive | –
65 | CCOc1ccc(-c2nnn(CC(=O)NCc3ccc(OC)cc3)n2)cc1OCC | – | 6.33
66 | Cc1cc(N)n(-c2nc(-c3cccnc3)nc3ccccc23)n1 | inactive | –
67 | O=C(OCC#CCSc1nnc(-c2ccc(Br)cc2)o1)c1ccco1 | inactive | –
68 | CC(C)C1C(C#N)=C(N)Oc2n[nH]c(-c3ccccc3)c21 (configuration not stated) | inactive | –
69 | OCCn1nc2c3ccccc3nc-2n(-c2ccccc2)c1=S | inactive | –

Row | Compound | outcome | pEC50
70 | Cc1cc(O)c(C=Nc2cccc(Cl)c2)c(=O)o1 | inactive | –
71 | CCCCNC(=O)c1ccc2nc(-c3ccco3)c(-c3ccco3)nc2c1 | inactive | –
72 | CC(C)Cc1nc(N2CCN(C(=O)C(C)C)CC2)c(C#N)c2c1CCC2 | inactive | –
73 | O=C(CCc1ccc(CCC(=O)c2cccs2)s1)c1cccs1 | inactive | –
74 | O=C1COc2ccc(C(=O)c3ccccc3)cc2CN1 | inactive | –
75 | O=c1c2ccccc2nc(SCc2cccc(F)c2)n1Cc1ccco1 | inactive | –
76 | CN1CCN(CC(O)COCc2ccc3c(c2)OCO3)CC1 (configuration not stated) | inactive | –
77 | COc1ccc(C2CC(c3cc(OC)ccc3OC)n3nnnc3N2)cc1 (configuration not stated) | inactive | –
78 | CCSc1nc(-c2ccco2)ccc1C#N | inactive | –
79 | Cc1c(-c2ccccc2)nc(N)c(C#N)c1-c1ccco1 | – | 5.70
80 | O=C(CSc1nc2ccccc2s1)NC(=O)NCc1ccco1 | inactive | –
81 | Nc1nc2n(n1)C(c1ccccc1)CC(c1ccc(F)cc1)N2 (configuration not stated) | inactive | –
82 | C=CCn1c(=S)[nH]c2nc3c(cc2c1=O)CCCC3 | inactive | –
83 | CC(=O)c1cc(C#N)c(SCc2ccncc2)nc1C | inactive | –
84 | CCC(=O)Nc1nc2c(OC)ccc(OC)c2s1 | inactive | –
85 | O=S1(=O)N=C(N2CCc3ccccc3C2)c2ccccc21 | inactive | –
86 | CSc1nncc(-c2ccc(F)c(F)c2)n1 | inactive | –
87 | C=CCNC(=O)c1ccccc1NC(=O)c1ccccc1 | inactive | –
88 | CC(C)Oc1ccccc1C1CC(=O)Nc2cc3c(cc21)OCCO3 (configuration not stated) | inactive | –
89 | CCCCCn1c(SCC(=O)OC)nc2c1c(=O)[nH]c(=O)n2C | inactive | –
90 | CCOc1ccccc1C1NC(=O)NC(C)=C1C(=O)OC1CCCCC1 (configuration not stated) | inactive | –
91 | COc1ccc(C2CC(=O)Nc3ccccc3S2(=O)=O)cc1OC (configuration not stated) | inactive | –
92 | CCCCn1c(=NC(=O)c2ccco2)c(C(=O)OCC)cc2c(=O)n3ccccc3nc21 | inactive | –

Row | Compound | outcome | pEC50
93 | CCn1cc(C(=O)OCC(=O)OC2CC(C)CCC2C(C)C)c(=O)c2ccc(C)nc21 (configuration not stated) | inactive | –
94 | COc1ccc(-n2nc3ccccc3n2)cc1 | inactive | –
95 | Cc1cc(C)n(-c2nc3ccccc3nc2Nc2ccc(CC(=O)O)cc2)n1 | – | 5.95
96 | CCOC(=O)c1ccc(Oc2cc(C)nc(SC)n2)cc1 | inactive | –
97 | COc1ccc(-c2c3c(=O)n(C)c(=O)n(C)c3cn2-c2ccccc2)cc1 | inactive | –
98 | Cc1cc(NS(=O)(=O)c2ccc(NC(=O)COc3ccccc3C(C)C)cc2)no1 | inactive | –
99 | CCOc1ccccc1C1CC(c2ccccc2)Nc2nc(N)nn21 (configuration not stated) | inactive | –
100 | COc1ccc(S(=O)(=O)Nc2ccc3c(c2)OCO3)cc1OC | inactive | –
101 | N#CC1=C(N)N(c2ccccc2)C2=C(C(=O)CCC2)C1c1cccs1 (configuration not stated) | inactive | –
102 | CCCCN(CC)C(=O)c1ccc(Cl)c(Cl)c1 | inactive | –
103 | Cc1ccc(-n2c(SCC(=O)OC(C)C)nnc2-c2cnccn2)cc1 | inactive | –
104 | NC(=O)COc1ccc(NC(=O)OCc2ccccc2)cc1 | inactive | –
105 | CCOC(=O)C(O)(CCC(O)(C(=O)OCC)C(=O)OCC)C(=O)OCC | inactive | –
106 | O=C(Nc1ncnc2sc3c(c12)CCCCC3)c1ccco1 | inactive | –
107 | CCCCn1c(=O)c(C(=O)Nc2cnccn2)c(O)c2ccccc21 | inactive | –
108 | COc1ccc(OC)c(C(=O)COC(=O)C2CC3CCCC(C2)C3=O)c1 (configuration not stated) | inactive | –
109 | CCC(Sc1nc(=O)cc(N)n1CCc1ccccc1)C(=O)Nc1ccccc1C#N (configuration not stated) | inactive | –
110 | Fc1ccc(-c2cc(C(F)(F)F)nc(-n3cncn3)n2)cc1 | inactive | –
111 | Cc1ccc(-n2c(=O)cc(N3CC(C)CC(C)C3)[nH]c2=O)cc1 (configuration not stated) | inactive | –
112 | COc1ccc(-c2noc(COc3ccc4ccccc4c3Br)n2)cc1OC | inactive | –

From PubChem BioAssay AID857 (Vanderbilt High Throughput Screening Facility, 2007)
